In PMC8962522, “Direct interaction of TrkA/CD44v3 is essential for NGF-promoted aggressiveness of breast cancer cells” (Journal of Experimental & Clinical Cancer Research : CR, 2022):

Experiments:
SUM-159-PT cells = test: Clonogenicity assay, SUM-159-PT; type: cell-based; settings: Supplementary Fig. 9 A & B (P4; same observations = colony forming units reduced as in MDA-MB-231), Supplementary Fig. 10 B (siCD44v3)
[1] = test system: TrkA/CD44v3 complex in SUM159-PT cells; test: PLA TrkA/CD44v3 complex formation in SUM159-PT cells; type: cell-based; settings: triple negative; NGF 100 ng/ml
Experimental: Cells (10,000 cells per well) were grown on acid-washed eight-well glass slides (Thermo Scientific) in the appropriate medium supplemented with 10% FBS for 24 h. After NGF treatment, paraformaldehyde (PAF)-fixed cells were incubated with 4% bovine serum albumin (BSA) or 5% FBS (for 1 h at 20 °C), followed by overnight incubation with primary antibodies (rabbit anti-TrkA or rabbit anti-IgG + mouse anti-pan-CD44; mouse anti-CD44v3; mouse anti-CD44v6; mouse anti-IgG2a; mouse anti-IgG2b; or mouse anti-IgG1). PLA was performed following the manufacturer’s instructions in the assay kit (Duolink PLA; Sigma–Aldrich). To obtain the correct representation of the PLA signal for each condition, 30 fields per condition were observed using a fluorescence microscope (Eclipse TiU; Nikon, Japan). The PLA signals (red dots) were automatically quantified using ImageJ software (with an in-house-developed plug-in). […]
Fig. 7 The TrkA/CD44v3 complex is formed in PR-negative breast cancer cells and tumors. TrkA/CD44v3 complex formation was measured in SUM159-PT (triple negative—i.e., ERα-, PR-, and Her2-) cells (A), T47-D (luminal A—i.e., ERα+, PR+, and Her2-) cells (B), BT-474 (luminal B—ERα+, PR+, and Her2+) cells (C), HCC-1954 (Her2-like—ERα-, PR-, and Her2+) cells (D), and 150 tumor patient samples obtained from US BioMax (HBre-Duc150Sur01) (E, F) using the proximity ligation assay (PLA). […]

“IDDDEDFISST [Peptide 4, mimetic peptide 4 (…) corresponding to the C-terminal region of CD44v3]” was tested, and the “effect on clonogenic growth of SUM-159-PT cells” value (SUM-159-PT cells) was “The same observations were made in SUM-159PT”.
With “NGF: recombinant human β-NGF (Alomone Labs, Israel)” the “effect on TrkA/CD44v3 complex formation (PLA) in SUM159-PT cells” value [1] was “NGF induction of CD44v3/TrkA complex formation was observed in SUM-159PT (TN) and HCC-1954 (Her2) cells”.
